# Residues, ends and D or L forms follow the SMILES beside them. *: point of attachment. pNA = O=[N+]([O-])c1ccc(N*)cc1; MeOSuc = COC(=O)CCC(=O)*
# Assays:
# [1] = Cleavage in newborn calf serum; type: in vitro ADME
# Procedure: (§1) A tyrosine tripeptide (compound 1 in FIG. 5) was prepared using methods known to those in the peptide chemistry art. It is known that PSA cleaves its para-nitroanilide (pNA) derivative at the tyrosine site (compound 2 in FIG. 5). (Christensson, A. et al., Eur. J Biochem., 194:755-763 (1990)). It is also known that the “released” pNA makes it possible to study this reaction colormetrically.
# [2] = Cleavage in pooled human serum; type: in vitro ADME
# Procedure: as §1
# [3] = system: human DU-145 prostate carcinoma xenograft; experiment: Growth delay of human DU-145 prostate carcinoma xenograft in male SCID mice; type: in vivo
# Procedure: Two human prostate carcinoma tumor lines grown as xenografts in male SCID mice are used: the human DU-145 prostate carcinoma which is not androgen dependent and the human LNCaP prostate carcinoma which produces PSA and has a well characterized androgen receptor and response to androgens. The drug complexes are administered up to maximally tolerated doses alone and in conjunction with fractionated radiation therapy (^137Cs Gamma Cell 40) delivered to the tumor bearing limb.
# The progress of each tumor is assessed thrice weekly by caliper measurements until the tumors reach 2000 mm^3. Tumor growth delay is calculated as the number of days for each tumor to reach a volume of 500 mm^3 as compared to untreated controls. The efficacy of combination treatments is assessed using isobologram analysis for determination of additivity/synergy.
# Male SCID mice bearing the human DU-145 prostate carcinoma Xenograft growing subcutaneously in a hind-limb were treated daily with TG (0.5 mg/kg) by IP injection from day 4-18 post tumor cell implantation. Some animal groups also received fractionated RT locally to the tumor bearing region on days 7-11 or days 7-11 and 14-18.
# [4] = system: rat and human androgen independent prostate cancer cell lines; settings: 500 nm thapsigargin, cited from earlier work
# [5] = system: pumps of erythrocytes, plasma, or mitochondrial membranes; settings: cited from earlier work
# PC3 cells = experiment: Effect of TG and RT on clonogenic survival of PC3 cells; type: cell-based, human; settings: for Surviving Fraction (SF) (PE treated/PE control): plated at 24 hours
# Procedure: PC3 and DU-145 androgen-independent human prostate cancer cell lines obtained from the American Tissue Culture Collection (ATCC) are used for in vitro studies. Cells are grown as monolayer cultures in RPMI 1640 medium supplemented with 10% fetal bovine serum, 2 mM glutamine and antibiotics. Radiation survival curves and radiation-induced apoptotic DNA fragmentation patterns in these cell lines are already established in the laboratory. Cells are treated with this drug, carrier-peptide, or carrier-peptide-drug complex with or without radiation. After 24 hours, the cells are trypsinized and plated for clonogenic survival studies. Apoptotic response to the treatments is determined by: 1) agarose gel electrophoresis analysis of DNA fragmentation at 48 and 72 hours after treatment, 2) morphological observations after staining with DAPI, and 3) terminal deoxytransferase-mediated dUTP Nick End Labeling (TUNEL) assay.
# [6] = system: Ca++-ATPase pumps of the endoplasmic reticulum; settings: cited from earlier work
# [7] = system: DU-145 prostate cancer cells; experiment: Effect of TG and RT on proliferation of DU-145 prostate cancer cells (cell count, trypan blue); type: cell-based, human; settings: for Total Number of Cells per Dish: counted at 48 hours
# [8] = after administration to a person; cited from earlier work
smiles,measurement,setting,value
COC(=O)CCC(=O)N[C@@H](CCCNC(=N)N)C(=O)N1CCC[C@H]1C(=O)N[C@@H](Cc1ccc(O)cc1)C(=O)Nc1ccc([N+](=O)[O-])cc1 [compound 2] (MeOSuc-Arg-Pro-Tyr-pNA),"cleavage, release of pNA",[1],"neither newborn calf serum, nor pooled human serum cleaved"
same,"cleavage, release of pNA",[2],"neither newborn calf serum, nor pooled human serum cleaved"
C/C=C(/C)C(=O)O[C@H]1C(C)=C2[C@H]([C@@H]1OC(=O)CCCCCCC)[C@@](C)(OC(C)=O)C[C@H](OC(=O)CCC)[C@@]1(O)[C@H]2OC(=O)[C@@]1(C)O [Thapsigargin],"tumor growth delay, combination with RT",[3]; TG 0.5 mg/kg daily IP day 4-18 with fractionated RT days 7-11,the independent effects of TG and RT were additive
same,"tumor growth delay, combination with RT extended to 2 weeks",[3]; TG 0.5 mg/kg daily IP day 4-18 with fractionated RT days 7-11 and 14-18,the additional benefit of the TG administration was maintained
same,tumor growth delay,"[3]; TG 0.5 mg/kg daily IP, day 4-18, alone, FIG. 1",produced a measurable tumor growth delay
same,apoptosis,[4]; within 72 to 96 hours,undergo apoptosis
same,clonogenic potential,[4]; within 72 to 96 hours,lose their clonogenic potential
same,intracellular Ca++,[4]; lines with or without p53 expression,elevation of intracellular Ca^++
same,"inhibition of pumps of erythrocytes, plasma, or mitochondrial membranes",[5],not
same,Surviving Fraction (SF) (PE treated/PE control),"PC3 cells; TG 20 nM, 0 Gy",0.69
same,NET survival (SF/TG toxicity),"PC3 cells; TG 20 nM, 2 Gy",0.61
same,Surviving Fraction (SF) (PE treated/PE control),"PC3 cells; TG 20 nM, 2 Gy",0.42
same,NET survival (SF/TG toxicity),"PC3 cells; TG 20 nM, 4 Gy",0.33
same,Surviving Fraction (SF) (PE treated/PE control),"PC3 cells; TG 20 nM, 4 Gy",0.23
same,Surviving Fraction (SF) (PE treated/PE control),"PC3 cells; TG 50 nM, 0 Gy",0.80
same,NET survival (SF/TG toxicity),"PC3 cells; TG 50 nM, 2 Gy",0.49
same,Surviving Fraction (SF) (PE treated/PE control),"PC3 cells; TG 50 nM, 2 Gy",0.39
same,NET survival (SF/TG toxicity),"PC3 cells; TG 50 nM, 4 Gy",0.29
same,Surviving Fraction (SF) (PE treated/PE control),"PC3 cells; TG 50 nM, 4 Gy",0.23
same,Surviving Fraction (SF) (PE treated/PE control),"PC3 cells; TG 100 nM, 0 Gy",0.62
same,NET survival (SF/TG toxicity),"PC3 cells; TG 100 nM, 2 Gy",0.40
same,Surviving Fraction (SF) (PE treated/PE control),"PC3 cells; TG 100 nM, 2 Gy",0.25
same,NET survival (SF/TG toxicity),"PC3 cells; TG 100 nM, 4 Gy",0.30
same,Surviving Fraction (SF) (PE treated/PE control),"PC3 cells; TG 100 nM, 4 Gy",0.18
same,Surviving Fraction (SF) (PE treated/PE control),"PC3 cells; TG 200 nM, 0 Gy",0.58
same,NET survival (SF/TG toxicity),"PC3 cells; TG 200 nM, 2 Gy",0.43
same,Surviving Fraction (SF) (PE treated/PE control),"PC3 cells; TG 200 nM, 2 Gy",0.25
same,NET survival (SF/TG toxicity),"PC3 cells; TG 200 nM, 4 Gy",0.22
same,Surviving Fraction (SF) (PE treated/PE control),"PC3 cells; TG 200 nM, 4 Gy",0.13
same,Surviving Fraction (SF) (PE treated/PE control),"PC3 cells; TG 400 nM, 0 Gy",0.60
same,NET survival (SF/TG toxicity),"PC3 cells; TG 400 nM, 2 Gy",0.42
same,Surviving Fraction (SF) (PE treated/PE control),"PC3 cells; TG 400 nM, 2 Gy",0.25
same,NET survival (SF/TG toxicity),"PC3 cells; TG 400 nM, 4 Gy",0.22
same,Surviving Fraction (SF) (PE treated/PE control),"PC3 cells; TG 400 nM, 4 Gy",0.13
same,clonogenic cell survival in vitro (result in words),PC3 cells; summary of Table 2,inhibits clonogenic cell survival in vitro
same,inhibition of Ca++-ATPase pumps of the endoplasmic reticulum,[6],specifically inhibits
same,Total Number of Cells per Dish,"[7]; TG 20 nM, 0 Gy",1.0 10^6
same,Total Number of Cells per Dish,"[7]; TG 20 nM, 2 Gy 2 hours after TG",0.8 10^6
same,Total Number of Cells per Dish,"[7]; TG 20 nM, 4 Gy 2 hours after TG",0.3 10^6
same,Total Number of Cells per Dish,"[7]; TG 20 nM, 8 Gy 2 hours after TG",0.4 10^6
same,Total Number of Cells per Dish,"[7]; TG 100 nM, 0 Gy",0.7 10^6
same,Total Number of Cells per Dish,"[7]; TG 100 nM, 2 Gy 2 hours after TG",0.5 10^6
same,Total Number of Cells per Dish,"[7]; TG 100 nM, 4 Gy 2 hours after TG",0.5 10^6
same,Total Number of Cells per Dish,"[7]; TG 100 nM, 8 Gy 2 hours after TG",0.4 10^6
same,Total Number of Cells per Dish,"[7]; TG 400 nM, 0 Gy",0.7 10^6
same,Total Number of Cells per Dish,"[7]; TG 400 nM, 2 Gy 2 hours after TG",0.4 10^6
same,Total Number of Cells per Dish,"[7]; TG 400 nM, 4 Gy 2 hours after TG",0.3 10^6
same,Total Number of Cells per Dish,"[7]; TG 400 nM, 8 Gy 2 hours after TG",0.3 10^6
same,cell proliferation in vitro (result in words),[7]; summary of Table 1,inhibits cell proliferation in vitro
NCCCCNCCCF [N-3 fluoropropylputrescine],distribution to prostate and bone relative to blood and muscle,[8],selectively distributed to prostate and bone

# Source: patent US6368598B1, “Drug complex for treatment of metastatic prostate cancer” (priority 1996, dated 2002)
